Measured values: patent publication US20090029943A1, “Glucosamine and Derivatives Thereof Useful as TG Inhibitors” (priority 2005, published 2009)
Entries after “also recorded” stand apart in the source; their conditions may differ.

Columns and labels:
[1] = tested on: iNOS (NF-kB-inducible) in LPS-activated BV2 microglia; test: iNOS Western blotting in LPS-activated BV2 microglia cells; type: cell-based, murine; settings: LPS 100 ng/ml 24 hrs; glucosamine 1, 10 or 100 mM; FIG. 3A
Experimental: The inhibitory effects of glucosamine on transglutaminase were determined by monitoring the activity of the transcriptional factor NF-kB through the measurement of level of NF-kB-inducible iNOS.
The cells were maintained in DMEM (Dulbecco's Modified Eagle's medium) (Invitrogen) supplemented with 10% fetal bovine serum and penicillin/streptomycin in a 5% CO2, 37° C. incubator. BV-2 was activated by treatment with LPS (100 ng/ml; Sigma) for 24 hrs.
In order to detect the intracellular activity of transglutaminase, the cells were incubated for 24 hrs in a medium supplemented with 4.5 nmoles of ^14C-putrescine (1.11×10^6 dpm)/ml. Cells were grouped according to treatment without or with 1, 10 or 100 mM of glucosamine. Following LPS treatment for 24 hrs, cells in each group were homogenized with a radioimmunoprecipitation assay buffer (1×PBS, 1% Nonidet P-40, 0.5% sodium deoxycholate and 0.1% SDS) containing a protease inhibitor. The homogenates were centrifuged at 100,000×g for 1 hr. and the supernatants were subjected to iNOS Western blotting.
After being separated from a 10˜20% gradient SDS gel using Tricine buffer (Invitrogen), the Western blotting samples were transferred onto polyvinylidene difluoride membrane (Invitrogen). Western blotting was conducted as usual. […]

[2] = tested on: transglutaminase in SH-SY5Y/TG cells (I-κBα level); test: I-κBα Western blotting in SH-SY5Y/TG neuroblastoma cells; type: cell-based, human; settings: 10 mM glucosamine, 3 hrs, cytosol fraction; FIG. 4A
Experimental: For use in the transfection of transglutaminase, the human neuroblastoma cell SH-SY5Y was purchased from American Type Culture Collection. SH-SY5Y was cultured in DMEM (Dulbecco's modified Eagle's Medium)/Ham F12 medium (50:50) supplemented with 10% heat-inactivated fetal bovine serum, glutamine, and penicillin/streptomycin. In order to avoid clonal mutation, an Flp-In™ system (Invitrogen, Co) was introduced. SH-SY5Y transformed with a mock vector was used as a […] (Wild) while a full-length transglutaminase gene was cloned in a pcDNA5/FRT vector to prepare SH-SY5Y/TG. Allowing NF-kB to be usually active therein (J. Biol. Chem. 279, 53725-53735, 2004), the strain thus constructed is widely used as an NF-kB activation model based on the overexpression of transglutaminase. […] The inhibitory effects of putative transglutaminase inhibitors were investigated by incubating SH-SY5Y/TG cells in the presence of 10 mM glucosamine (GM), 200 μM cystamine (CTM), and 2 nM iodoacetamide (IAA) for 3 hrs, followed by obtaining cytosol fractions with the aid of a nuclear extraction kit (Sigma) from the cells. As a negative control, a cytosol fraction obtained from a cell culture incubated in the absence of any transglutaminase inhibitor was used (Ct). […]

[3] = biological target: T1, purified transglutaminase enzyme (Sigma T5398) (UniProt P08587); test: In vitro assay for inhibition of transglutaminase activity (14C-putrescine incorporation into succinylated casein); type: biochemical; settings: glucosamine 1, or 100 mM; 37° C., 1 hour; FIG. 2
T1 construct: purchased Sigma T5398
T1 sequence (P08587 1-690): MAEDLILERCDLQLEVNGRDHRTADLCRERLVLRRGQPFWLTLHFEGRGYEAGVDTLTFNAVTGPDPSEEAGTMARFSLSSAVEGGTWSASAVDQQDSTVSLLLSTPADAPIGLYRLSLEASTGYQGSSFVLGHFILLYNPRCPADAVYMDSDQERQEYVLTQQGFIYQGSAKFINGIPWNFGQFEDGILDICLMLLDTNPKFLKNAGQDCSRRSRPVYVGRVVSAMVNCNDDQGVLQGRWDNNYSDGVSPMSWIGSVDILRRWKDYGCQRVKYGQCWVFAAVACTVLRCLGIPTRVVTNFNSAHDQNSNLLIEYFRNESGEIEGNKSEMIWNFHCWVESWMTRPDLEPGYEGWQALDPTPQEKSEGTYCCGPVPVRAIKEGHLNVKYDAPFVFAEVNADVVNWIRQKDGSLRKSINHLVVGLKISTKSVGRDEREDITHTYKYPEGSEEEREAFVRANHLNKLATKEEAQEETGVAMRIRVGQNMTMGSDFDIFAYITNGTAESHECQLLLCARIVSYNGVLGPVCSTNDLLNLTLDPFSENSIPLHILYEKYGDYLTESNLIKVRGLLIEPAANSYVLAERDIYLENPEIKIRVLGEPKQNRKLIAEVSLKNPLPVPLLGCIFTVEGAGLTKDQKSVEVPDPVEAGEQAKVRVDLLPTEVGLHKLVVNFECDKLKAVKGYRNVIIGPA
Experimental: Consequently, glucosamine and derivatives thereof are transglutaminase inhibitors.
In the presence of various concentrations of […], which competes with putrescine, the reaction between [1,4-^14C] putrescine and succinylated casein, catalyzed by transglutaminase, was observed.
A reaction buffer (0.5 ml) was prepared as follows: 0.1 M triacetate pH 7.5, 1% succinylated casein, 1 mM EDTA, 10 mM CaCl2, 0.5% lubrol PX, 5 mM DTT, 0.15 M NaCl and 0.5 mCi [1,4-^14C] putrescine (Dupont-New England Nuclear; 118 Ci/mole). To this reaction buffer were added 2 μl of a purified transglutaminase enzyme (Sigma T5398), glucosamine and a 50 mM Tris-acetate buffer so as to yield a final volume of 100 μl, having a glucosamine concentration of 1, or 100 mM. Mixing was followed by reaction at 37° C. for 1 hour before termination with 4.5 ml of cold (4° C.) 7.5% TCA. The TCA-precipitates thus formed were filtered through a GF/glass fiber filter, washed with 10 volumes of 5% TCA and dried, followed by measuring transglutaminase-catalyzed ^14C-putrescine-labelled casein with a β-counter.
The relative inhibition activities (%) of glucosamine against transglutaminase are depicted in FIG. 2.

[4] = biological target: T2, transglutaminase in LPS-activated microglia cells (Mus musculus, UniProt P21981); test: Intracellular transglutaminase activity in LPS-activated BV2 microglia (14C-putrescine incorporation); type: cell-based, murine; settings: LPS 24 hrs; glucosamine 1, 10 or 100 mM; FIG. 3B
T2 construct: In order to detect the intracellular activity of transglutaminase, the cells were incubated for 24 hrs; endogenous in cells
T2 sequence (P21981 1-686): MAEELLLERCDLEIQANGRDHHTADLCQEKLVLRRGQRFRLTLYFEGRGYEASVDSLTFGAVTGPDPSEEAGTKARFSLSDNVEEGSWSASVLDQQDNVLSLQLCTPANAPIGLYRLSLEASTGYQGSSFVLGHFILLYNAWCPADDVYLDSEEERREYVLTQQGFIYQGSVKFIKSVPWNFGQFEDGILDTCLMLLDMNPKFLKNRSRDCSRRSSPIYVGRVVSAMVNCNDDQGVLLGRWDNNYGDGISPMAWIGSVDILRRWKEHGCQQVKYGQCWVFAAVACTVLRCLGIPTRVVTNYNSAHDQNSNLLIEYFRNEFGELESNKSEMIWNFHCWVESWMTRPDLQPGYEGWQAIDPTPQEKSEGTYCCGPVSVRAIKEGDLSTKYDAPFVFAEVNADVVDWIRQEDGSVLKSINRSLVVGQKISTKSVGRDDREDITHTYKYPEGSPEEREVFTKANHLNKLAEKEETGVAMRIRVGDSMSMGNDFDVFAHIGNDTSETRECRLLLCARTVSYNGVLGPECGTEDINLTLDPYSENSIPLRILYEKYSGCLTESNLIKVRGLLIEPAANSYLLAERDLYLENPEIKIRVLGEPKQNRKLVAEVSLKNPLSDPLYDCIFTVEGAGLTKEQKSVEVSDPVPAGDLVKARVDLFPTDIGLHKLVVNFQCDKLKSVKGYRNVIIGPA

N[C@H]1C(O)O[C@H](CO)[C@@H](O)[C@@H]1O (stereo partly shown) [glucosamine]
level of expression of iNOS [1]: reduces the level of expression of iNOS
transglutaminase inhibition shown by level of expression of I-κBα [2]: identified as a transglutaminase inhibitor
activity of transglutaminase (relative inhibition activity) [3]: poorer activity of transglutaminase; also recorded: inhibited in a glucosamine dose-dependent manner
activity of transglutaminase in LPS-activated microglia [4]: inhibited in a glucosamine dose-dependent manner
